Data reported in patent US20140349332A1, “METHOD AND DEVICE FOR EXAMINING MYOCARDIAL TOXICITY AND EVALUATING CARDIOMYOCYTE” (priority 2011, published 2014).

System: cardiomyocyte network
Test: Simultaneous measurement of extracellular potential (FP) and contractile force (optical imaging of probe microparticles) in cardiomyocyte network
Format: cell-based
Source text: FIG. 43 is a schematic diagram showing an example of a system configuration of the present invention to simultaneously measure the mechanical properties and electrical properties of cardiomyocytes. The present system includes (1) a cellular network chip that can be used for culturing a cell population, includes a plurality of micro-electrodes disposed on a substrate and can be used for acquiring cellular potential data of a small area of the population; (2) a chip mounter for mounting the chip and joining electrically with cell-stimulating and/or cellular potential measuring system; (3) an environmental control vessel which can be used to control the environment such as temperature, humidity, oxygen concentration and carbon dioxide concentration of the cell population being cultured; (4) a micro multi-electrode potential measurement system that can give stimulation to a specific cell of a cardiomyocyte population, and allows simultaneous continuous measurements of cellular potentials of various small areas in the cell population; (5) one or more position-coordinate probe microparticles configured to measure changes in shape of myocardial cells and allow easy identification of cardiomyocytes using a plastic, polymer, glass or metal microparticles such as polystyrene microparticles, glass microparticles or gold microparticles of sizes from at minimum about 0.1, 0.2 μm, 0.3 μm, 0.4 μm, 0.5 μm, 0.6 μm, 0.7 μm, or preferably about 0.8 μm, more preferably about 0.9 μm, or most preferably about 1 μm, to at most about 500 μm, 400 μm, 300 μm, preferably about 200 μm, more preferably about 100 μm or most preferably about 50 μm, wherein the particles are disposed in the cell population by mixing them on the surface of the cardiomyocyte population in the cell network chip or in the cell population and culturing them; (6) an optical image capturing system for optically measuring the microparticles, wherein the system includes a light source, an optical microscope and an image-capturing camera to capture the images of the microparticles; and (7) a computer system for image analysis, cellular potential analysis, stimulus control and/or integrated data acquisition, wherein the system is capable of measurements of cellular potential and analysis of waveforms of the potential, measurements of cell displacements by image analysis and feedback stimulation based on the analysis results. In the measurements using the device system, as for the stimulus to cause depolarization of the myocardial cells, the stimulus can be provided by selecting mainly from three means, i.e., (A) measurements using conduction of autonomous pulsation of the cardiomyocyte population, (B) measurements of conduction by providing a forced electrical stimulation from outside to a specific cell in the cardiomyocyte population and (C) measurements of conduction by providing a feed-back stimulus at a specific timing to meet the relationship of the delay time and the value of the cellular potential based on the cell voltage measured data to the specific cells in the cardiomyocyte population.
FIG. 44 is an example of a data acquisition monitor screen showing an example of data obtained from an example of a system configuration of the present invention to simultaneously measure the mechanical properties and the electrical properties of cardiomyocytes. In a setting of this example, a large number of polystyrene microparticles are placed on the surface of the cardiomyocyte population, a probe-particle displacement-observation window for five of the polystyrene microparticles selected as probes is set, and the center of gravity of the window moves with the movement of the microparticles in the window, thereby displacement of the particular probe microparticles can be measured continuously as a change in vector time in the directions of the X-axis and Y-axis. […]

[1] = drug concentration of 100 nM, FIG. 52B

For `COc1ccc(CCN(C)CCCC(C#N)(c2ccc(OC)c(OC)c2)C(C)C)cc1OC` (stereo not drawn) [verapamil], the electrophysiological excitation (1000 nM, FIG. 52A) was “does not occur”, the mechanical contraction (1000 nM, FIG. 52A) was “mechanical contraction does not occur” and the “angle fluctuation against decrease in contractile force” value (administration of 10 nM, FIG. 54B) was “barely increases”. For the same compound, the “fluctuation of contractile direction in the angular direction” value (administration of 100 nM, FIG. 54B) was “rapid fluctuation”, the contractile force [1] was “disappear rapidly” and the “electrical firing of excitatory conduction of cells” value [1] was “maintained”.
